This is an account of results in publication PMC6269498, “Increased activity of MdFRK2, a high-affinity fructokinase, leads to upregulation of sorbitol metabolism and downregulation of sucrose metabolism in apple leaves” (Horticulture Research, 2018).

This assay has as its system MdFRK1. Description: coupled spectrophotometric assay (phosphoglucoisomerase / G6P dehydrogenase), […] nm. The assay is classed as biochemical, Malus domestica. As to conditions: 50 mM Tris-HCl pH 8.0, 4 mM MgCl2, 2.5 mM ATP; substrate inhibition above 2 mM fructose.

On to `OCC1(O)OC[C@@H](O)[C@@H](O)[C@@H]1O` (stereo partly shown) [fructose], for which the Km – broadly, the substrate concentration at which the rate is half of its maximum – was found to be 620 µM.
